Several values for one entry are separate records, joined by “and”; a condition that tells them apart may be missing. Equal values may be shown once.
Experiment: xn = mol fraction of the nth substance listed

CCO + O
Conditions | viscosity
293.15 K, 100 kPa, x1 = 0.3 | 2.81 mPa·s
293.15 K, 100 kPa, x1 = 0.4 | 2.616 mPa·s
293.15 K, 101 kPa, x2 = 0.25 | 2.385 mPa·s
293.15 K, 101 kPa, x2 = 0.75 | 2.114 mPa·s
293.15 K, 101.33 kPa, x1 = 0.04164 | 1.564 mPa·s
293.15 K, 101.33 kPa, x1 = 0.2068 | 2.942 mPa·s
293.15 K, 101.33 kPa, x1 = 0.235 | 2.947 mPa·s
293.15 K, 101.33 kPa, x1 = 0.2499 | 2.922 mPa·s
293.15 K, 101.33 kPa, x1 = 0.3697 | 2.694 mPa·s
293.15 K, 101.33 kPa, x1 = 0.4771 | 2.381 mPa·s
293.15 K, 101.33 kPa, x1 = 0.61 | 2.036 mPa·s
293.15 K, 101.33 kPa, x1 = 0.7787 | 1.643 mPa·s
293.15 K, 101.33 kPa, x2 = 0.0102 | 1.261 mPa·s
298 K, 101 kPa, x1 = 0.09 | 1.81 mPa·s
298 K, 101 kPa, x1 = 0.1 | 2.409 mPa·s
298 K, 101 kPa, x1 = 0.4 | 2.234 mPa·s
298 K, 101 kPa, x1 = 0.5 | 2.013 mPa·s
298.15 K, 100 kPa, x1 = 0.2 | 2.335 mPa·s
298.15 K, 100 kPa, x1 = 0.4 | 2.148 mPa·s
298.15 K, 100 kPa, x1 = 0.78 | 1.423 mPa·s
298.15 K, 101 kPa, x1 = 0.0112 | 0.991 mPa·s
298.15 K, 101 kPa, x1 = 0.0129 | 1.007 mPa·s
298.15 K, 101 kPa, x1 = 0.0197 | 1.072 mPa·s
298.15 K, 101 kPa, x1 = 0.025 | 1.127 mPa·s
298.15 K, 101 kPa, x1 = 0.0289 | 1.166 mPa·s
298.15 K, 101 kPa, x1 = 0.0348 | 1.225 mPa·s
298.15 K, 101 kPa, x1 = 0.0439 | 1.322 mPa·s
298.15 K, 101 kPa, x1 = 0.0515 | 1.405 mPa·s
298.15 K, 101 kPa, x1 = 0.0677 | 1.576 mPa·s
298.15 K, 101 kPa, x1 = 0.1003 | 1.889 mPa·s
298.15 K, 101 kPa, x1 = 0.1025 | 1.91 mPa·s
298.15 K, 101 kPa, x1 = 0.1139 | 2 mPa·s
298.15 K, 101 kPa, x1 = 0.1302 | 2.109 mPa·s
298.15 K, 101 kPa, x1 = 0.14 | 2.1 mPa·s
298.15 K, 101 kPa, x1 = 0.1597 | 2.247 mPa·s
298.15 K, 101 kPa, x1 = 0.1837 | 2.322 mPa·s
298.15 K, 101 kPa, x1 = 0.28 | 2.25 mPa·s
298.15 K, 101 kPa, x1 = 0.3515 | 2.248 mPa·s
298.15 K, 101 kPa, x1 = 0.37 | 2.14 mPa·s
298.15 K, 101 kPa, x1 = 0.4801 | 1.995 mPa·s
298.15 K, 101 kPa, x1 = 0.613 | 1.725 mPa·s
298.15 K, 101 kPa, x1 = 0.6923 | 1.58 mPa·s
298.15 K, 101 kPa, x1 = 0.8006 | 1.401 mPa·s
298.15 K, 101 kPa, x1 = 0.8018 | 1.399 mPa·s
298.15 K, 101 kPa, x1 = 0.905 | 1.239 mPa·s
298.15 K, 101 kPa, x1 = 0.9518 | 1.167 mPa·s
298.15 K, 101 kPa, x2 = 0.25 | 2.046 mPa·s
298.15 K, 101 kPa, x2 = 0.5 | 2.322 mPa·s
298.15 K, 101 kPa, x2 = 0.75 | 1.778 mPa·s
298.15 K, 101 kPa, x2 = 0.9584 | 1.108 mPa·s
298.15 K, 101.33 kPa, x1 = 0.0144 | 0.96 mPa·s
298.15 K, 101.33 kPa, x1 = 0.0205 | 1.013 mPa·s
298.15 K, 101.33 kPa, x1 = 0.1135 | 1.851 mPa·s
298.15 K, 101.33 kPa, x1 = 0.1414 | 2.129 mPa·s
298.15 K, 101.33 kPa, x1 = 0.1893 | 2.29 mPa·s
298.15 K, 101.33 kPa, x1 = 0.2151 | 2.327 mPa·s
298.15 K, 101.33 kPa, x1 = 0.3285 | 2.273 mPa·s
298.15 K, 101.33 kPa, x1 = 0.3308 | 2.273 mPa·s
298.15 K, 101.33 kPa, x1 = 0.3461 | 2.247 mPa·s
298.15 K, 101.33 kPa, x1 = 0.3745 | 2.226 mPa·s
298.15 K, 101.33 kPa, x1 = 0.3801 | 2.212 mPa·s
298.15 K, 101.33 kPa, x1 = 0.4246 | 2.104 mPa·s
298.15 K, 101.33 kPa, x1 = 0.4299 | 2.112 mPa·s
298.15 K, 101.33 kPa, x1 = 0.4836 | 1.995 mPa·s
298.2 K, 100 kPa, x2 = 0.387 | 1.854 mPa·s
298.2 K, 100 kPa, x2 = 0.399 | 1.676 mPa·s
298.2 K, 100 kPa, x2 = 0.655 | 2.18 mPa·s
298.2 K, 100 kPa, x2 = 0.674 | 2.18 mPa·s
300.65 K, 101 kPa, x1 = 0.86 | 1.1 mPa·s
303.15 K, 101 kPa, x2 = 0.25 | 1.767 mPa·s
303.15 K, 101 kPa, x2 = 0.5 | 1.961 mPa·s
303.15 K, 101.33 kPa, x1 = 0.04164 | 1.179 mPa·s
303.15 K, 101.33 kPa, x1 = 0.08905 | 1.574 mPa·s
303.15 K, 101.33 kPa, x1 = 0.1435 | 1.9 mPa·s
303.15 K, 101.33 kPa, x1 = 0.2499 | 2.061 mPa·s
303.15 K, 101.33 kPa, x1 = 0.2652 | 2.056 mPa·s
303.15 K, 101.33 kPa, x1 = 0.2811 | 2.068 mPa·s
303.15 K, 101.33 kPa, x1 = 0.4771 | 1.79 mPa·s
303.15 K, 101.33 kPa, x1 = 0.61 | 1.567 mPa·s
303.15 K, 101.33 kPa, x1 = 0.7787 | 1.311 mPa·s
303.15 K, 101.33 kPa, x2 = 0.0102 | 1.035 mPa·s
308 K, 101 kPa, x1 = 0.09 | 1.343 mPa·s
308.15 K, 101 kPa, x2 = 0.25 | 1.54 mPa·s
308.15 K, 101 kPa, x2 = 0.5 | 1.676 mPa·s
308.15 K, 101 kPa, x2 = 0.9584 | 0.939 mPa·s
313.15 K, 101 kPa, x2 = 0.25 | 1.349 mPa·s
313.15 K, 101 kPa, x2 = 0.5 | 1.448 mPa·s
313.15 K, 101.33 kPa, x1 = 0.04164 | 0.909 mPa·s
313.15 K, 101.33 kPa, x1 = 0.1435 | 1.383 mPa·s
313.15 K, 101.33 kPa, x1 = 0.2068 | 1.494 mPa·s
313.15 K, 101.33 kPa, x1 = 0.2499 | 1.509 mPa·s
313.15 K, 101.33 kPa, x1 = 0.2652 | 1.514 mPa·s
313.15 K, 101.33 kPa, x1 = 0.2811 | 1.529 mPa·s
313.15 K, 101.33 kPa, x1 = 0.61 | 1.223 mPa·s
313.15 K, 101.33 kPa, x1 = 0.7787 | 1.05 mPa·s
317.15 K, 101 kPa, x1 = 0.86 | 0.779 mPa·s
318.15 K, 101 kPa, x2 = 0.25 | 1.185 mPa·s
318.15 K, 101 kPa, x2 = 0.5 | 1.255 mPa·s
318.15 K, 101 kPa, x2 = 0.9413 | 0.8181 mPa·s
323.15 K, 100 kPa, x1 = 0.2 | 1.113 mPa·s and 1.08 mPa·s
323.15 K, 100 kPa, x1 = 0.3 | 1.108 mPa·s
323.15 K, 100 kPa, x1 = 0.4 | 1.113 mPa·s and 1.072 mPa·s
323.15 K, 100 kPa, x1 = 0.6 | 0.9548 mPa·s and 0.9408 mPa·s
323.15 K, 100 kPa, x1 = 0.8 | 0.8101 mPa·s
323.15 K, 101 kPa, x2 = 0.25 | 1.055 mPa·s
323.15 K, 101 kPa, x2 = 0.5 | 1.102 mPa·s
323.15 K, 101 kPa, x2 = 0.75 | 0.89 mPa·s
323.15 K, 101.33 kPa, x1 = 0.04164 | 0.747 mPa·s
323.15 K, 101.33 kPa, x1 = 0.08905 | 0.924 mPa·s
323.15 K, 101.33 kPa, x1 = 0.1435 | 1.061 mPa·s
323.15 K, 101.33 kPa, x1 = 0.2068 | 1.152 mPa·s
323.15 K, 101.33 kPa, x1 = 0.235 | 1.157 mPa·s
323.15 K, 101.33 kPa, x1 = 0.2499 | 1.162 mPa·s
323.15 K, 101.33 kPa, x1 = 0.2652 | 1.177 mPa·s
323.15 K, 101.33 kPa, x1 = 0.2811 | 1.18 mPa·s
323.15 K, 101.33 kPa, x1 = 0.3697 | 1.162 mPa·s
323.15 K, 101.33 kPa, x1 = 0.4771 | 1.089 mPa·s
323.15 K, 101.33 kPa, x1 = 0.61 | 0.981 mPa·s
323.15 K, 101.33 kPa, x1 = 0.7787 | 0.866 mPa·s
323.15 K, 101.33 kPa, x2 = 0.0102 | 0.729 mPa·s
